Where two headings read alike, the source gives them in different places.
Legend:
[1] = Human liver microsome stability assay; conditions: human, human liver microsomes, pH 7.4
CYP2B6 = CYP2B6 (Homo sapiens (Human), UniProt P20813); assay: CYP2B6 Vivid blue substrate O-dealkylation inhibition; type: biochemical
CYP2E1 = CYP2E1 (Homo sapiens (Human), UniProt P05181); assay: CYP2E1 Vivid blue substrate O-dealkylation inhibition; type: biochemical
P450 2A6dH = P450 2A6dH (Homo sapiens (Human), UniProt P11509, INS494HHHH)
P450 2A6dH, sequence (P11509 other isoform, or with tags, fused parts or gaps 1-28 replaced by MAKKTS/ins HHHH behind 494): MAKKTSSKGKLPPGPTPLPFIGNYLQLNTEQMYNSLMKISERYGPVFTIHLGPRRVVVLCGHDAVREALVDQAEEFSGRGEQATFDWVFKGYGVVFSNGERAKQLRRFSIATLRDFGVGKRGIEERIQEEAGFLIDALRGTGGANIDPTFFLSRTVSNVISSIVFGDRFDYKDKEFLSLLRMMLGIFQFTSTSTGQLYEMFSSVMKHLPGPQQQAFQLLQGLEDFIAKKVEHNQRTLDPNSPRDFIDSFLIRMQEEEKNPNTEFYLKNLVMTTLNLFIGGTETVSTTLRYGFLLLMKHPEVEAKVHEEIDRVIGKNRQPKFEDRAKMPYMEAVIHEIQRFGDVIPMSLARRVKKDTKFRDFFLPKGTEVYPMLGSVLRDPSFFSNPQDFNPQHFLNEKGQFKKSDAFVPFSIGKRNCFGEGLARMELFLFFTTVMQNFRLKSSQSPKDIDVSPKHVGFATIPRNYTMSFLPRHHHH
Procedure: Subsequently, test compound (in 100% ethanol, 10 μM) was added to both the cuvettes. The maximal ethanol concentration used was 2%. The difference spectra were obtained after the system reached equilibrium (3 min). All spectra were recorded at 25° C.

CYP2C9 = CYP2C9 (Homo sapiens (Human), UniProt P11712); assay: CYP2C9 Vivid blue substrate O-dealkylation inhibition; type: biochemical
CYP2C9, sequence (P11712 whole entry): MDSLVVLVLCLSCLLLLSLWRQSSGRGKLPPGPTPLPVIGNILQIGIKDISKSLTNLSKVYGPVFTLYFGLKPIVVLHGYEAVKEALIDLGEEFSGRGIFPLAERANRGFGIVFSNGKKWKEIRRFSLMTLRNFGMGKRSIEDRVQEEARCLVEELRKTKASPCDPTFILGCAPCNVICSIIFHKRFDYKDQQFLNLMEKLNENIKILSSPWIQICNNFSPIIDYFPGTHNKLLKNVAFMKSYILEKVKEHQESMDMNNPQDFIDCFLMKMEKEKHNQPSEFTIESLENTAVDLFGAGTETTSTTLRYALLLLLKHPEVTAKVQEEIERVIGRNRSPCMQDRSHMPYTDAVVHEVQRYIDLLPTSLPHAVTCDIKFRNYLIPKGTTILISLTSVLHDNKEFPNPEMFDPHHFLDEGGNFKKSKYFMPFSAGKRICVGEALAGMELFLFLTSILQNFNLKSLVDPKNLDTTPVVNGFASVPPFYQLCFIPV

human CYP2A6 [2] = target: T1, human CYP2A6 (Homo sapiens (Human), UniProt P11509)
[3] = Mouse liver microsome stability assay; conditions: mouse, mouse liver microsomes, pH 7.4
Procedure: The residue was reconstituted in methanol (200 μL), centrifuged at 13,000 rpm for 5 min and the supernatant was analyzed by high-performance liquid chromatography with an Axxi-chrom (straight-phase) silica column (4.6 mm×250 mm, 5 μm) or with a Supelco (reverse-phase) HS F5 pentafluorophenyl column (4.6 mm×250 mm, 5 μm).

CYP3A4 = CYP3A4 (Homo sapiens (Human), UniProt P08684); assay: in vitro
CYP3A4, sequence (P08684 whole entry): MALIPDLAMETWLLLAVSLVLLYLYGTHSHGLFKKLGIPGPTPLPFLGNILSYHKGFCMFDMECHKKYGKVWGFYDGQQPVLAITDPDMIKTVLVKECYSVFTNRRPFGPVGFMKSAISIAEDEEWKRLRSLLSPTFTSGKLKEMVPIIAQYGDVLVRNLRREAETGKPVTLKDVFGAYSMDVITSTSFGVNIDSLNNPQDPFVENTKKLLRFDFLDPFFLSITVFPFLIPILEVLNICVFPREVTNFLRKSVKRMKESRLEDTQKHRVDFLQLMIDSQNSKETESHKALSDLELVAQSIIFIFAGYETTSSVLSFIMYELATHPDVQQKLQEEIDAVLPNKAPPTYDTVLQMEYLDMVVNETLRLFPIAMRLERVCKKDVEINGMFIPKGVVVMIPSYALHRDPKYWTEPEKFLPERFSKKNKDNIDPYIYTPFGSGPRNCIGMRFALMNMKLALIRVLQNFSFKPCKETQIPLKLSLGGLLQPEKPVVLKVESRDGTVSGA
Procedure: (§1) To gain insight into the selectivity of the synthetic compounds, nicotine, nicotine related alkaloids and nicotine metabolites for inhibition of other CYPs, we examined the major CYP present in human liver (i.e., CYP 3A4). […] A typical incubation mixture ([…] ), 0.5 mM NADP^+, 2.0 mM G6P, 1 U of G6P dehydrogenase, […] inhibitor was added last as to minimize interaction with the protein. After mixing on ice, the reaction was initiated by the addition of substrate and incubated at 37° C. with shaking in air. Organic extracts were injected onto a Hitachi L-7100 system equipped with a Hitachi L-7400 UV detector. Separations were done with an Altex Ultrasphere ODS (4.6 mm×250 mm, 5 μm) column. The analytes were eluted with an isocratic solvent system consisting of water/acetonitrile/methanol (30:10:60, v/v/v) at a flow rate of 1.0 mL/min. […] Quantification of substrate and metabolite was determined from peak areas of the chromatogram and comparison with standard curves. IC50 values were determined as described below.
(§2) To measure CYP3A4 activity, testosterone 6-hydroxylation was determined.

CYP2C19 = CYP2C19 (Homo sapiens (Human), UniProt P33261); assay: CYP2C19 Vivid blue substrate O-dealkylation inhibition; type: biochemical
CYP2C19, sequence (P33261 whole entry): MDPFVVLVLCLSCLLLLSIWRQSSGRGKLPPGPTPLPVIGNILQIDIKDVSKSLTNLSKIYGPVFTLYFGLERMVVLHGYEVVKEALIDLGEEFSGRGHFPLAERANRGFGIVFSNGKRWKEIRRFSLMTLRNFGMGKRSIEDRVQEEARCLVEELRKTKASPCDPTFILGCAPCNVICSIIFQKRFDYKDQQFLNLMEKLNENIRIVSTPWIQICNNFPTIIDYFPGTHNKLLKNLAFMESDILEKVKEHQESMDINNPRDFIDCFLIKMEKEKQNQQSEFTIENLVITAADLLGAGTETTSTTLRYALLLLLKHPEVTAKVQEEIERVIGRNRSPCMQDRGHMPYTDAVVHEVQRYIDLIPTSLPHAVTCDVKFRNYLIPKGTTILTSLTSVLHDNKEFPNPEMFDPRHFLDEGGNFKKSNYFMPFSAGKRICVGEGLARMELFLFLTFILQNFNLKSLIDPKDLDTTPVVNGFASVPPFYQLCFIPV

CYP2D6 = CYP2D6 (Homo sapiens (Human), UniProt P10635); assay: CYP2D6 Vivid blue substrate O-dealkylation inhibition; type: biochemical
CYP2D6, sequence (P10635 whole entry): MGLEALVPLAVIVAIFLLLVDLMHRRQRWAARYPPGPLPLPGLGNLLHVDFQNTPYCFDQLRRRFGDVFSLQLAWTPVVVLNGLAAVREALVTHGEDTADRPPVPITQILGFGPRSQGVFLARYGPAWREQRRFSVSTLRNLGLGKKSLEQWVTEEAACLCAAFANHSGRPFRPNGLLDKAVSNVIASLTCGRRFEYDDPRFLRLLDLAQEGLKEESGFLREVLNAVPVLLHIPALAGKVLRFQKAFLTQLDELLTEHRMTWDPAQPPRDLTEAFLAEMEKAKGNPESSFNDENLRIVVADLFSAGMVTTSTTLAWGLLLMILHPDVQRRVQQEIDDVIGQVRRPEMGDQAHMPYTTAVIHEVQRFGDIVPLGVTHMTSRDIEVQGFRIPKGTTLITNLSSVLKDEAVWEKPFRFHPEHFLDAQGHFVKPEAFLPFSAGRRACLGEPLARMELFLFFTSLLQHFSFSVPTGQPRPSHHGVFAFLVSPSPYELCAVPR

[4] = target: CYP2B6 relative to CYP2A6 (Homo sapiens (Human), UniProt P20813); assay: CYP2B6 Vivid blue substrate O-dealkylation inhibition; type: biochemical; conditions: human
CYP2B6 relative to CYP2A6, sequence (P20813 whole entry): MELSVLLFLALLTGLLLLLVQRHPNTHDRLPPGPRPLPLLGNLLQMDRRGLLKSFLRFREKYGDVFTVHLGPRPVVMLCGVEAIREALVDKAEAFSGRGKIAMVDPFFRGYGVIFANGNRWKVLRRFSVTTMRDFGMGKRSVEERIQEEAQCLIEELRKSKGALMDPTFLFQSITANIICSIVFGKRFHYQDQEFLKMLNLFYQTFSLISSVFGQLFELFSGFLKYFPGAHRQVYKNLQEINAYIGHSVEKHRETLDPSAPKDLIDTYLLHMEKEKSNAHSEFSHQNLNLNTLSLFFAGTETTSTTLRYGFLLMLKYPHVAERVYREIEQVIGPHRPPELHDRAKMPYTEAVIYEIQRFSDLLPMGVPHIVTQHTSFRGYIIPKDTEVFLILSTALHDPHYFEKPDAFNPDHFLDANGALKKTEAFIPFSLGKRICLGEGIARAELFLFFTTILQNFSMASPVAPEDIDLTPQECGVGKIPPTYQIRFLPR

[5] = target: CYP2E1 relative to CYP2A6 (Homo sapiens (Human), UniProt P05181); assay: CYP2E1 Vivid blue substrate O-dealkylation inhibition; type: biochemical
CYP2E1 relative to CYP2A6, sequence (P05181 whole entry): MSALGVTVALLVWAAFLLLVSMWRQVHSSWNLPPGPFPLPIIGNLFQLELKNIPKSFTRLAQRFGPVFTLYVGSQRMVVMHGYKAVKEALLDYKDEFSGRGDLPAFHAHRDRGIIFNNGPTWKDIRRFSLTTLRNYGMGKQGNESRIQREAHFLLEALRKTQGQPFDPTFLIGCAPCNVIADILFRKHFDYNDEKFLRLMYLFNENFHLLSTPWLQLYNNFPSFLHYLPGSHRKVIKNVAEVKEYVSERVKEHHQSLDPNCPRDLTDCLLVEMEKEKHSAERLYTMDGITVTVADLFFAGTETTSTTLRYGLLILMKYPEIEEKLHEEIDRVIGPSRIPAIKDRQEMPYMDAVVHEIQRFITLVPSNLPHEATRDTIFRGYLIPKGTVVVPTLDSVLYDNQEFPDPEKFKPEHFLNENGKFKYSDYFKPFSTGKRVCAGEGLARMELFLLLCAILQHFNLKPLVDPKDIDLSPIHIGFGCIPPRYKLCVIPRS

[6] = target: CYP2C9 relative to CYP2A6 (Homo sapiens (Human), UniProt P11712); assay: CYP2C9 Vivid blue substrate O-dealkylation inhibition; type: biochemical; conditions: human
CYP2C9 relative to CYP2A6, sequence (P11712 whole entry): as the sequence (P11712 whole entry) above

[7] = target: CYP3A4 relative to CYP2A6 (Homo sapiens (Human), UniProt P08684); assay: in vitro; conditions: human, pH 7.5
CYP3A4 relative to CYP2A6, sequence (P08684 whole entry): as the sequence (P08684 whole entry) above
Procedure: as §1, §2

[8] = target: CYP2C19 relative to CYP2A6 (Homo sapiens (Human), UniProt P33261); assay: CYP2C19 Vivid blue substrate O-dealkylation inhibition; type: biochemical; conditions: human
CYP2C19 relative to CYP2A6, sequence (P33261 whole entry): as the sequence (P33261 whole entry) above

[9] = target: CYP2D6 relative to CYP2A6 (Homo sapiens (Human), UniProt P10635); assay: CYP2D6 Vivid blue substrate O-dealkylation inhibition; type: biochemical; conditions: human, recombinant CYP2D6 BACULOSOMES, pH 8, probe Vivid blue substrate (10 μM), O-dealkylation
CYP2D6 relative to CYP2A6, sequence (P10635 whole entry): as the sequence (P10635 whole entry) above

human CYP2A6 [10] = target: T1, human CYP2A6; assay: CYP2A6 mediated coumarin 7-hydroxylation inhibition
[11] = recombinant CYP2C19 BACULOSOMES, pH 8, probe Vivid blue substrate (10 μM), O-dealkylation, read-out: 2C19/2A6 selectivity ratio (IC50 CYPX/IC50 CYP2A6)
[12] = read-out: 2D6/2A6 selectivity ratio (IC50 CYPX/IC50 CYP2A6)
[13] = recombinant CYP2B6 BACULOSOMES, pH 8, probe Vivid blue substrate (5 μM), O-dealkylation, read-out: 2B6/2A6 selectivity ratio (IC50 CYPX/IC50 CYP2A6)
[14] = insect cell microsomes expressing CYP2B6, 0.2M potassium phosphate buffer, mean of at least 3 determinations ± SD, read-out: IC50 ± SD 2B6
[15] = insect cell microsomes expressing CYP2E1, 0.2M potassium phosphate buffer, mean of at least 3 determinations ± SD, read-out: IC50 ± SD 2E1
[16] = pH 8, 2C9/2A6 selectivity ratio (IC50 CYPX/IC50 CYP2A6)
[17] = insect cell microsomes expressing CYP2C19, 0.2M potassium phosphate buffer, mean of at least 3 determinations ± SD, read-out: IC50 ± SD 2C19
[18] = insect cell microsomes expressing CYP2D6, 0.2M potassium phosphate buffer, mean of at least 3 determinations ± SD, read-out: IC50 ± SD 2D6

CYP2B6, sequence (P20813 whole entry): as the sequence (P20813 whole entry) above
CYP2E1, sequence (P05181 whole entry): as the sequence (P05181 whole entry) above

Structure (SMILES)	half-life at 40 μM [1] [min]	binding type (P450 2A6dH)	λmax (P450 2A6dH) [nm]	λmin (P450 2A6dH) [nm]	IC50 (human CYP2A6 [2]) [nM]	half-life at 40 μM [3] [min]	IC50 (CYP3A4) [µM]	IC50 (human CYP2A6 [2]; human, pH 7.5) [nM]	selectivity ratio at 30 min [7]	selectivity ratio at 40 min [8, 11]	selectivity ratio at 40 min [9, 12]	selectivity ratio at 40 min [4, 13]	IC50 (CYP2B6; [14]) [µM]	IC50 (CYP2E1; [15]) [µM]	IC50 (CYP2C19; [17]) [µM]	IC50 (CYP2D6; [18]) [µM]	also measured
NCc1ccc(-c2cccnc2)o1 [Compound 2a]	37	Type II	428	409	270 ± 20	37	47.1 ± 18.1	–	–	–	–	–	–	–	–	–	2B6/2A6 selectivity ratio (IC50 CYPX/IC50 CYP2A6) (CYP2B6): 707; IC50 (CYP2B6; Table 4, unit inferred, read-out: 2B6 IC50 ± SD): 191 ± 24 µM; 2E1/2A6 selectivity ratio (IC50 CYPX/IC50 CYP2A6) (CYP2E1): 637; IC50 (CYP2E1; Table 4, unit inferred, read-out: 2E1 IC50 ± SD): 172 ± 52 µM; IC50 (CYP2C9; Table 4, unit inferred, read-out: 2C9 IC50 ± SD): 11.7 ± 2.2 µM; IC50 (CYP2C19; Table 4, unit inferred, read-out: 2C19 IC50 ± SD): 22 ± 1.6 µM; 2D6/2A6 selectivity ratio (IC50 CYPX/IC50 CYP2A6) (CYP2D6): 42; IC50 (CYP2D6; Table 4, unit inferred, read-out: 2D6 IC50 ± SD): 11.3 ± 2.6 µM
Cc1ccsc1-c1cccnc1 [Compound 4]	32	–	–	–	–	41	–	–	–	–	–	–	–	–	–	–	–
Cn1cnc(-c2cccnc2)c1 [Compound 5]	–	Type II	429	409	750 ± 100	481	262 ± 63	748 ± 100	349	163	272	–	–	–	–	–	selectivity ratio at 40 min ([4]; pH 8): 195; selectivity ratio at 40 min ([5]; human, pH 8): 5; selectivity ratio at 40 min ([6]; recombinant CYP2C9 BACULOSOMES, pH 8, probe Vivid blue substrate (10 μM), O-dealkylation, read-out: 2C9/2A6 selectivity ratio (IC50 CYPX/IC50 CYP2A6)): 106
c1cncc(-c2ccc(CNCc3ccc(-c4cccnc4)s3)s2)c1 [Compound 38b, bis((5-(pyridin-3-yl)thiophen-2-yl)methyl)amine]	–	–	–	–	–	–	–	–	> 54	0.03	1.7	1.2	9 ± 0.8	0.86 ± 0.24	0.21 ± 0.03	12.9 ± 1.9	selectivity ratio at 40 min ([5]; recombinant CYP2E1 BACULOSOMES, pH 8, probe Vivid blue substrate (10 μM), O-dealkylation, human CYP2E1 versus human CYP2A6, read-out: Selectivity ratio (IC50 CYPX/IC50 CYP2A6) 2E1/2A6): 0.12; Ki (human CYP2A6 [10]; coumarin 7-hydroxylation, apparent Ki from IC50 by Cheng-Prusoff): 1200 ± 200 nM; IC50 (human CYP2A6 [10]; read-out: IC50 ± SD 2A6, insect cell microsomes expressing CYP2A6, 0.1M Tris buffer, mean of at least 3 determinations ± SD): 7.4 ± 1.3 µM; fold decrease of CYP2A6 inhibitor potency (human CYP2A6 [10]; relative to compound 38a): 60 fold; IC50 (CYP2C9; human, pH 8): 0.71 ± 0.75 µM; selectivity ratio [6, 16]: 0.1; selectivity ratio ([6]; pH 8, Selectivity ratio (IC50 CYPX/IC50 CYP2A6) 2C9/2A6): 0.1
NCc1ccc(-c2cccnc2)o1 [Compound 39a, (5-(Pyridin-3-yl)furan-2-yl)methanamine]	–	type 2	–	–	–	–	–	270 ± 20	174	–	41	707	191 ± 24	172 ± 52	22 ± 1.6	11.3 ± 2.6	selectivity ratio at 40 min ([5]; human, recombinant CYP2E1 BACULOSOMES, pH 8, probe Vivid blue substrate (10 μM), O-dealkylation, read-out: 2E1/2A6 selectivity ratio (IC50 CYPX/IC50 CYP2A6)): 637; IC50 (CYP2C9; insect cell microsomes expressing CYP2C9, 0.2M potassium phosphate buffer, mean of at least 3 determinations ± SD, read-out: IC50 ± SD 2C9): 11.7 ± 2.2 µM; selectivity ratio at 40 min [6, 16]: 41; selectivity ratio at 40 min ([6]; pH 8, human CYP2C9 versus human CYP2A6, read-out: Selectivity ratio (IC50 CYPX/IC50 CYP2A6) 2C9/2A6): 41; Ki (human CYP2A6 [2]; human, pH 7.5): 40 ± 4 nM; selectivity ratio at 40 min ([8]; pH 8, 2C19/2A6 selectivity ratio (IC50 CYPX/IC50 CYP2A6)): 82; selectivity ratio at 40 min ([8]; pH 8, human CYP2C19 versus human CYP2A6, read-out: Selectivity ratio (IC50 CYPX/IC50 CYP2A6) 2C19/2A6): 82; selectivity ratio at 40 min ([9]; human CYP2D6 versus human CYP2A6, read-out: Selectivity ratio (IC50 CYPX/IC50 CYP2A6) 2D6/2A6): 41
